These results are taken from publication PMC3164098, “C-Terminal Substitution of MDM2 Interacting Peptides Modulates Binding Affinity by Distinctive Mechanisms” (PLoS ONE, 2011).

The target of assay [1] is T1, hexahistidine tagged MDM2 (18–125) (Homo sapiens, UniProt Q00987).
T1 construct: DNA encoding residues Q18 to N125 of HDM2; made in house; host or cells: E. coli BL21(DE3)
Kind of assay: Isothermal titration calorimetry (ITC) of ligands against MDM2. Particulars: PBS pH 7.4, 0.05% TWEEN20, 1% DMSO; for Kd: 10 or 20 µM MDM2 in cell. It counts as binding. Here is the method: DNA encoding residues Q18 to N125 of HDM2 were cloned as a NdeI/BamHI fragment into pET19b (Novagen). Recombinant clones carrying the correct insert were identified by DNA sequencing. Plasmid from the identified clone was introduced into E. coli BL21(DE3) and protein production in LB medium was induced with IPTG (1 mM) when the cell density reached OD600 between 0.4 and 0.6. Induced cells were grown at room temperature for 5 h, harvested, and then resuspended in buffer A (50 mM Tris pH 8.0, 10% sucrose). After cell disruption and centrifugation, supernatant was loaded onto a Ni-nitrilotriacetic acid (NTA) column and washed with 5 column volumes of 0.3 M NaCl, 50 mM Tris-HCl pH 8.0, 1 mM DTT. […] The protein was further purified by cation-exchange chromatography (Pharmacia Mono S 5/5, 1 ml/min, 50 mM Tris-HCl pH 7.0, 1 mM DTT) with a 1 M NaCl gradient.
ITC experiments were conducted in a VP-ITC Unit (MicroCal, Northampton, MA). […] All titrations were carried out in 1% DMSO. […] All peptides used were weighed out as solids and dissolved in DMSO. The stock peptide solutions were diluted to their working concentrations in the buffer used for dialysis of the protein. DMSO was carefully added to the MDM2 solution in the VP-ITC cell to buffer match it to the peptide solution. The titration experiments were performed at 20°C with an initial 2 µl injection with duration of 4 s, followed by 28 10 µl injections with a duration of 7.1 s. The spacing between each injection was 150 s. The stirring speed during the titration was 290 rpm. Data was analyzed using Microcal Origin software by fitting to a single-site binding model. Correction for the enthalpy of ligand dilution was carried out by subtracting a linear fit from the last three data points of the titration, after the interaction had reached saturation.

Assay [2] has as its system N-terminal domain of MDM2. Particulars: peptide of residues 12–30 of WT p53, binding to N-terminal domain of MDM2; ref 10 (Zondlo et al.); cited from earlier work. The source says: The molecular interaction of the binding of the MDM2 N-terminal domain to the p53 N-terminus (TA domain) is well understood. Several high-resolution crystal and NMR structures in complex with a variety of peptides and small molecules have been elucidated, [8]. These structural studies indicate that the residues F19, W23 and L26 of the TA domain of p53 are critical for binding to MDM2. Indeed most peptides, peptidomimetics and small molecules that have been developed have indeed emerged as a result of mimicking these interactions. However, it has been known for some time that the other ...

Setting [3] is: 293 K (20°C), single-site binding model.

Ends that are not written are not given here.

T1 sequence (Q00987 18-125): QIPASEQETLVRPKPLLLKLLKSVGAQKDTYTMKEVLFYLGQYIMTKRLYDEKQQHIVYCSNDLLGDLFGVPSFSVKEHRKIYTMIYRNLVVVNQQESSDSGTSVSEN

By Kd is commonly meant the equilibrium constant for the complex coming apart. High values mean lower affinity, low ones higher affinity. Take `CSCC[C@H](NC(=O)[C@H](Cc1ccccc1)NC(=O)[C@H](CCCNC(=N)N)NC(=O)[C@@H]1CCCN1C(=O)[C@@H](N)CCSC)C(=O)N[C@@H](CC(=O)O)C(=O)N[C@@H](Cc1ccc(O)cc1)C(=O)N[C@@H](Cc1c[nH]c2ccccc12)C(=O)N[C@@H](CCC(=O)O)C(=O)NCC(=O)N[C@@H](CC(C)C)C(=O)N[C@@H](CO)C(N)=O` [12/1Ser]: in assay [1] (setting [3]), the Kd is 18.8 ± 5.03 nM.
Same read-out and setting: the result for `CC(C)C[C@H](NC(=O)[C@H](CC(C)C)NC(=O)[C@H](CCCCN)NC(=O)[C@H](Cc1c[nH]c2ccccc12)NC(=O)[C@H](CC(C)C)NC(=O)[C@H](CC(=O)O)NC(=O)[C@H](CO)NC(=O)[C@H](Cc1ccccc1)NC(=O)[C@@H](NC(=O)[C@H](CCC(=O)O)NC(=O)[C@@H](N)CCC(N)=O)[C@@H](C)O)C(=O)N[C@@H](CC(N)=O)C(N)=O` [P53 Asn] reads 168 ± 9.24 nM; that for `CC(C)C[C@H](NC(=O)[C@H](CC(C)C)NC(=O)[C@H](CCCCN)NC(=O)[C@H](Cc1c[nH]c2ccccc12)NC(=O)[C@H](CC(C)C)NC(=O)[C@H](CC(=O)O)NC(=O)[C@H](CO)NC(=O)[C@H](Cc1ccccc1)NC(=O)[C@@H](NC(=O)[C@H](CCC(=O)O)NC(=O)[C@@H](N)CCC(N)=O)[C@@H](C)O)C(=O)N[C@@H](C)C(N)=O` [p53 Ala], 112 ± 17.9 nM; that for `CC(C)C[C@H](NC(=O)[C@H](CC(C)C)NC(=O)[C@H](CCCCN)NC(=O)[C@H](Cc1c[nH]c2ccccc12)NC(=O)[C@H](CC(C)C)NC(=O)[C@H](CC(=O)O)NC(=O)[C@H](CO)NC(=O)[C@H](Cc1ccccc1)NC(=O)[C@@H](NC(=O)[C@H](CCC(=O)O)NC(=O)[C@@H](N)CCC(N)=O)[C@@H](C)O)C(=O)N[C@@H](CO)C(N)=O` [p53 Ser], 75.8 ± 10.4 nM.
`CC(C)C[C@H](NC(=O)[C@H](CC(=O)O)NC(=O)[C@H](CO)NC(=O)[C@H](Cc1ccccc1)NC(=O)[C@@H](NC(=O)[C@H](CCC(=O)O)NC(=O)[C@@H](N)CCC(N)=O)[C@@H](C)O)C(=O)N[C@@H](Cc1c[nH]c2ccccc12)C(=O)N[C@@H](CCCCN)C(=O)N[C@@H](CC(C)C)C(=O)N[C@@H](CC(C)C)C(=O)N[C@H](C(N)=O)[C@@H](C)O` [p53Thr] showed a Kd in assay [1] (setting [3]) of 38.8 ± 7.43 nM.
The same measure, in the same setting: the figure for MPRFMDYWEGLA-NH2 [12/1Ala] is 47.2 ± 11.1 nM.
On the same count and under the same terms, the figure for MPRFMDYWEGLN-NH2 [12/1] is 240 ± 53.8 nM; for MPRFMDYWEGLP-NH2 [12/1Pro] it is 213 ± 36.6 nM; for MPRFMDYWEGLT-NH2 [12/1Thr] it is 22.9 ± 4.21 nM.
As for “Nutlin [Nutlin Racemic, reference compound]”, the ΔG in assay [1] (binding free energy calculated from the Kd using ΔG = −RTlnKa, 293 K) was -8.97 ± 0.15 kcal/mol. In assay [1] (enthalpy of binding, 293 K (20°C), single-site binding model), this molecule yielded a ΔH of -6.10 ± 0.16 kcal/mol. This molecule gave a TΔS in assay [1] (entropy of binding, 293 K (20°C)) of 2.88 kcal/mol.
For “P27S: P27S substitution in a peptide corresponding to residues 12–30 of the WT p53 sequence (Zondlo et al.) (PPLSQETFSDLWKLLSENN; not fully specified (C-terminus); UniProt P04637 12-30, looked up, variant P27S)”, in assay [2], the “fold improvement in Kd over the wild type sequence” value is roughly 200 fold.
